{"source": "paper PMC12304285", "about": "(British Journal of Cancer, 2025)", "key": {"[1]": {"system": "PBMCs collected from patients", "assay": "iMRM-MS of DDR proteins in PBMCs collected from patients on treatment", "type": "in vivo, human", "conditions": "doses up to 40 mg", "description": "Prior to assessing clinical trial samples, PBMCs from healthy volunteers were treated ex vivo to determine biomarkers modulated by AZD7648. […] Samples were pooled and analysed by iMRM-MS. During the clinical trial, patient blood samples were collected during cycle 1 (day 1 and day 8), cycle 2 (day 1) and at the end of treatment and were analysed by iMRM-MS [20–23]. On-treatment tumour biopsies were optional in the trial protocol and none were collected, so tumour PD studies were not conducted.\nPreparation of Clinical PBMCs and iMRM analysis\nBlood from patients was drawn into 8 mL Vacutainer CPT tubes (BD) before treatment, 2-8h post dose at C1D1, C1D8, C2D1 and at discontinuation.\nAfter inverting the tube 8 -10 times, it was centrifuged and the PBMC layer transferred into a new tube, washed once with ice cold PBS, centrifuged again to obtain a pellet which was then […]\nPBMC pellets were lysed with 8M Urea supplemented with proteases and phosphatases inhibitors, sonicated, clarified by centrifugation and quantified with Micro -BCA assay (Thermo - […]\nThe samples were quality checked by SDS -PAGE followed by silver staining to evaluate the complexity of the obtained protein extract and assess the presence of most common blood contaminants (hemoglobulin and albumin). […]"}, "[2]": {"system": "patients with advanced cancer", "assay": "Preliminary antitumour activity by RECIST v1.1 (best objective response, target lesion change, PFS);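 further: same imaging modality as baseline kept at every follow-up, response-evaluable patients had ≥1 measurable non-irradiated target lesion ≥10 mm longest diameter and received ≥1 study dose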", "quoted_text": "The imaging method used at baseline had to be used at all follow-up visits. The following parameters were estimated: percentage best change in target lesion; duration of response; objective response rate (ORR); and progression-free survival (PFS).\nDescriptive statistics were used for all variables, as appropriate, and calculated only when n ≥ 3. Where data were available for <3 patients, only minimum, maximum and number of observations were provided. Percentages were calculated using the analysis set total and for modules or doses, unless otherwise stated. […] PFS, including median time to PFS and PFS rate at a specific timepoint, was summarized using the Kaplan–Meier method. SAS® version 9.4 was used for all analyses. The PK analysis set included dosed patients for whom an adequate PK profile was obtained."}, "[3]": {"assay": "Plasma and urine pharmacokinetics in patients", "type": "in vivo, human", "description": "Urine PK samples were collected at Cycle 0, Day 1 and at Cycle 1, Day 8 at the following timepoints: pre-dose (Cycle 0, Day 1 only), 0 to 8 h post dose and 8 to 24 h post-dose. […] Maximum observed concentration (Cmax) and time to reach Cmax (tmax) were determined directly by inspection of the concentration-time profiles. Terminal half-life slope (t½λz) was calculated as ln2/terminal elimination rate constant (λz). Area under the plasma concentration time curve from zero to last measurable concentration (AUClast) was calculated using the linear up/log down trapezoidal rule. AUClast was extrapolated to infinity using λz to obtain overall exposure (AUCinf). The amount of drug excreted unchanged in the urine (e.g. Ae0-t, Aeτ) for any given dosing interval was determined by multiplying the concentration of drug determined in the urine sample by the volume of the sample collected in that period."}, "[4]": {"conditions": "12 patients evaluable for objective response"}}, "note": "“Also recorded” adds a separate entry of the source."}
{"smiles": "Cc1cc2ncnn2cc1Nc1ncc2c(n1)n(C1CCOCC1)c(=O)n2C", "note": "[AZD7648, 7-Methyl-2-[(7-methyl[1,2,4]triazolo[1,5-a]pyridin-6-yl)amino]-9-(tetrahydro-2H-pyran-4-yl)-7,9-dihydro-8H-purin-8-one]", "values": [{"measurement": "activity on DDR protein markers in patient PBMCs", "setting": "[1]", "result": "did not show any activity; also recorded: not biologically active"}, {"measurement": "Best objective response: Complete response", "setting": "[2]; 5 mg BID (n = 1)", "result": "0 n (%)"}, {"measurement": "Best objective response: Death", "setting": "[2]; 5 mg BID (n = 1)", "result": "0 n (%)"}, {"measurement": "Best objective response: Disease progression", "setting": "[2]; 5 mg BID (n = 1)", "result": "1 (100.0) n (%)"}, {"measurement": "Best objective response: Not evaluable", "setting": "[2]; 5 mg BID (n = 1)", "result": "0 n (%)"}, {"measurement": "Best objective response: Partial response", "setting": "[2]; 5 mg BID (n = 1)", "result": "0 n (%)"}, {"measurement": "Best objective response: Stable disease", "setting": "[2]; 5 mg BID (n = 1)", "result": "0 n (%)"}, {"measurement": "Best objective response: Complete response", "setting": "[2]; 5 mg QD (n = 1)", "result": "0 n (%)"}, {"measurement": "Best objective response: Death", "setting": "[2]; 5 mg QD (n = 1)", "result": "0 n (%)"}, {"measurement": "Best objective response: Disease progression", "setting": "[2]; 5 mg QD (n = 1)", "result": "0 n (%)"}, {"measurement": "Best objective response: Not evaluable", "setting": "[2]; 5 mg QD (n = 1)", "result": "0 n (%)"}, {"measurement": "Best objective response: Partial response", "setting": "[2]; 5 mg QD (n = 1)", "result": "0 n (%)"}, {"measurement": "Best objective response: Stable disease", "setting": "[2]; 5 mg QD (n = 1)", "result": "1 (100.0) n (%)"}, {"measurement": "Best objective response: Complete response", "setting": "[2]; 10 mg BID (n = 1)", "result": "0 n (%)"}, {"measurement": "Best objective response: Death", "setting": "[2]; 10 mg BID (n = 1)", "result": "0 n (%)"}, {"measurement": "Best objective response: Disease progression", "setting": "[2]; 10 mg BID (n = 1)", "result": "0 n (%)"}, {"measurement": "Best objective response: Not evaluable", "setting": "[2]; 10 mg BID (n = 1)", "result": "0 n (%)"}, {"measurement": "Best objective response: Partial response", "setting": "[2]; 10 mg BID (n = 1)", "result": "0 n (%)"}, {"measurement": "Best objective response: Stable disease", "setting": "[2]; 10 mg BID (n = 1)", "result": "1 (100.0) n (%)"}, {"measurement": "Best objective response: Complete response", "setting": "[2]; 20 mg BID (n = 1)", "result": "0 n (%)"}, {"measurement": "Best objective response: Death", "setting": "[2]; 20 mg BID (n = 1)", "result": "0 n (%)"}, {"measurement": "Best objective response: Disease progression", "setting": "[2]; 20 mg BID (n = 1)", "result": "1 (100.0) n (%)"}, {"measurement": "Best objective response: Not evaluable", "setting": "[2]; 20 mg BID (n = 1)", "result": "0 n (%)"}, {"measurement": "Best objective response: Partial response", "setting": "[2]; 20 mg BID (n = 1)", "result": "0 n (%)"}, {"measurement": "Best objective response: Stable disease", "setting": "[2]; 20 mg BID (n = 1)", "result": "0 n (%)"}, {"measurement": "Best objective response: Complete response", "setting": "[2]; 40 mg BID (n = 2)", "result": "0 n (%)"}, {"measurement": "Best objective response: Death", "setting": "[2]; 40 mg BID (n = 2)", "result": "1 (50.0) n (%)"}, {"measurement": "Best objective response: Disease progression", "setting": "[2]; 40 mg BID (n = 2)", "result": "1 (50.0) n (%)"}, {"measurement": "Best objective response: Not evaluable", "setting": "[2]; 40 mg BID (n = 2)", "result": "0 n (%)"}, {"measurement": "Best objective response: Partial response", "setting": "[2]; 40 mg BID (n = 2)", "result": "0 n (%)"}, {"measurement": "Best objective response: Stable disease", "setting": "[2]; 40 mg BID (n = 2)", "result": "0 n (%)"}, {"measurement": "Best objective response: Complete response", "setting": "[2]; 80 mg BID (n = 4)", "result": "0 n (%)"}, {"measurement": "Best objective response: Death", "setting": "[2]; 80 mg BID (n = 4)", "result": "1 (25.0) n (%)"}, {"measurement": "Best objective response: Disease progression", "setting": "[2]; 80 mg BID (n = 4)", "result": "1 (25.0) n (%)"}, {"measurement": "Best objective response: Not evaluable", "setting": "[2]; 80 mg BID (n = 4)", "result": "1 (25.0) n (%)"}, {"measurement": "Best objective response: Partial response", "setting": "[2]; 80 mg BID (n = 4)", "result": "0 n (%)"}, {"measurement": "Best objective response: Stable disease", "setting": "[2]; 80 mg BID (n = 4)", "result": "1 (25.0) n (%)"}, {"measurement": "Best objective response: Complete response", "setting": "[2]; 160 mg BID (n = 2)", "result": "0 n (%)"}, {"measurement": "Best objective response: Death", "setting": "[2]; 160 mg BID (n = 2)", "result": "0 n (%)"}, {"measurement": "Best objective response: Disease progression", "setting": "[2]; 160 mg BID (n = 2)", "result": "1 (50.0) n (%)"}, {"measurement": "Best objective response: Not evaluable", "setting": "[2]; 160 mg BID (n = 2)", "result": "0 n (%)"}, {"measurement": "Best objective response: Partial response", "setting": "[2]; 160 mg BID (n = 2)", "result": "0 n (%)"}, {"measurement": "Best objective response: Stable disease", "setting": "[2]; 160 mg BID (n = 2)", "result": "1 (50.0) n (%)"}, {"measurement": "patients who died due to disease progression", "setting": "[2]; [4]", "result": 16.7, "unit": "%"}, {"measurement": "patients with RECIST disease progression", "setting": "[2]; [4]", "result": 41.7, "unit": "%"}, {"measurement": "patients with RECIST stable disease", "setting": "[2]; [4]", "result": 33.3, "unit": "%"}, {"measurement": "Best objective response: Complete response", "setting": "[2]; All cohorts of the module", "result": "0 n (%)"}, {"measurement": "Best objective response: Death", "setting": "[2]; All cohorts of the module", "result": "2 (16.7) n (%)"}, {"measurement": "Best objective response: Disease progression", "setting": "[2]; All cohorts of the module", "result": "5 (41.7) n (%)"}, {"measurement": "Best objective response: Not evaluable", "setting": "[2]; All cohorts of the module", "result": "1 (8.3) n (%)"}, {"measurement": "Best objective response: Partial response", "setting": "[2]; All cohorts of the module", "result": "0 n (%)"}, {"measurement": "Best objective response: Stable disease", "setting": "[2]; All cohorts of the module", "result": "4 (33.3) n (%)"}, {"measurement": "Median PFS", "setting": "[2]; Kaplan–Meier, all dose levels", "result": 1.91, "unit": "months"}, {"measurement": "PFS rate at 6 months", "setting": "[2]; Kaplan–Meier, all dose levels", "result": 23.08, "unit": "%"}, {"measurement": "RECIST response observed", "setting": "[2]; all dose levels", "result": "No responses; also recorded: No patient had a RECIST complete or partial response"}, {"measurement": "percentage change in target lesion size from baseline", "setting": "[2]; one patient with stable disease, 80 mg BID", "result": "−29.2", "unit": "%"}, {"measurement": "best percentage change from baseline in target lesion size, increase of the patient capped in the waterfall plot", "setting": "[2]; single patient", "result": 108.33, "unit": "%"}, {"measurement": "exposure versus dose", "setting": "[3]; 5 to 160 mg BID", "result": "increased in a broadly linear manner"}, {"measurement": "fraction excreted unchanged in urine", "setting": "[3]; human, in vivo", "result": "5–10 % of the total administered dose"}, {"measurement": "AUC(0-inf)", "setting": "[3]; human, plasma, oral, 80 mg BID cohort, Cycle 0 Day 1 single dose, read-out: geoMean AUCinf", "result": 25.2, "unit": "µM·h"}, {"measurement": "Cmax", "setting": "[3]; human, plasma, oral, 80 mg BID cohort, Cycle 0 Day 1 single dose, read-out: geoMean Cmax", "result": 2460, "unit": "nM"}, {"measurement": "Tmax", "setting": "[3]; human, plasma, 5 to 160 mg, oral", "result": "1 to 2", "unit": "h"}, {"measurement": "drug exposure achieved", "setting": "[3]; one patient at the 80 mg dose level", "result": "> 1", "unit": "µM"}]}
